Tests used:
pigweed [1] = test: Test A preemergence; assay type: in vivo, Amaranthus retroflexus
Summary of the method: (§1)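 Pre- and postemergence greenhouse test; loam+sand; cpd in non-phytotox. solvent/surfactant; post at 1–2 leaf, 2–10 cm; visual score ~10 d, 0 = none, 100 = complete control.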

pigweed [2] = test: Test A postemergence; assay type: in vivo, Amaranthus retroflexus
Summary of the method: as §1

corn = test: Test A preemergence; assay type: in vivo, Zea mays
Summary of the method: as §1

ducksalad = test: Test B flood; assay type: in vivo, Heteranthera limosa; details: 250 g ai/ha, visual rating on 0 to 100 scale (0 no effect, 100 complete control), 13 to 15 days
Summary of the method: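 Greenhouse assay lasting 13 to 15 days. Treatment was into water flooding pots 3 cm deep, at the 2-leaf stage, with that level sustained afterwards. Scores compare treated with control plants visually, 100 denoting complete control and 0 no effect; a dash marks no test result.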

barnyardgrass = test: Test A postemergence; assay type: in vivo, Echinochloa crus-galli
Summary of the method: as §1

morningglory = test: Test A preemergence; assay type: in vivo, Ipomoea spp.
Summary of the method: as §1

johnsongrass = test: Test C preemergence; assay type: in vivo, Sorghum halepense; details: for Plant response rating (scale of 0 to 100), Johnsongrass: Preemergence, 250 g ai/ha
Source text: (§2) Seeds of plant species selected from blackgrass (Alopecurus myosuroides), ryegrass, Italian (Italian ryegrass, Lolium multiflorum), wheat (winter wheat, Triticum aestivum), galium (catchweed bedstraw, Galium aparine), corn (Zea mays), crabgrass, large (large crabgrass, Digitaria sanguinalis), foxtail, giant (giant foxtail, Setaria faberii), johnsongrass (Sorghum halepense), lambsquarters (Chenopodium album), morningglory (Ipomoea coccinea), nutsedge, yellow (yellow nutsedge, Cyperus esculentus), pigweed (redroot pigweed, Amaranthus retroflexus), ragweed (common ragweed, Ambrosia elation), soybean (Glycine max), barnyardgrass (Echinochloa crus-galli), oilseed rape (Brassica napus), waterhemp (common waterhemp, Amaranthus rudis), oat, wild (wild oat, Avena fatua), kochia (Kochia scoparia), Surinam grass (Brachiaria decumbens), foxtail, green (green foxtail, Setaria viridis), goosegrass (Eleusine indica), bromegrass, downy (downy bromegrass, Bromus tectorum), nightshade (eastern black nightshade, Solanum ptycanthum), cocklebur (common cocklebur, Xanthium strumarium), cupgrass, woolly (woolly cupgrass, Eriochloa villosa), bermudagrass (Cynodon dactylon), sunflower, (common oilseed sunflower, Helianthus annuus), Russian thistle (Salsola kali), and velvetleaf (Abutilon theophrasti) were planted into a blend of loam soil and sand and treated preemergence with test chemicals formulated in a non-phytotoxic solvent mixture which included a surfactant.
(§3) At the same time, plants selected from these crop and weed species and also chickweed (common chickweed, Stellaria media), canarygrass (littleseed canarygrass, Phalaris minor), and deadnettle (henbit deadnettle, Lamium amplexicaule), were planted in pots containing Redi-Earth® planting medium (Scotts Company, 14111 Scottslawn Road, Marysville, Ohio 43041) comprising spaghnum peat moss, vermiculite, wetting agent and starter nutrients and treated with postemergence applications of test chemicals formulated in the same manner. Plants ranged in height from 2 to 18 cm (1- to 4-leaf stage) for postemergence treatments. Treated plants and controls were maintained in a greenhouse for 13 to 15 days, after which time all species were compared to controls and visually evaluated. Plant response ratings, summarized in Table C, are based on a scale of 0 to 100 where 0 is no effect and 100 is complete control. A dash (-) response means no test result.

galium = test: Test C preemergence; assay type: in vivo, Galium aparine; details: for Plant response rating (scale of 0 to 100), Galium: Preemergence, 250 g ai/ha
Source text: as §2, §3

crabgrass, large [3] = test: Test C preemergence; assay type: in vivo, Digitaria sanguinalis; details: for Plant response rating (scale of 0 to 100), Crabgrass, Large: Preemergence, 250 g ai/ha
Source text: as §2, §3

crabgrass, large [4] = test: Test A postemergence; assay type: in vivo, Digitaria sanguinalis
Summary of the method: as §1

soybean = test: Test C preemergence; assay type: in vivo, Glycine max; details: for Plant response rating (scale of 0 to 100), Soybean: Preemergence, 250 g ai/ha
Source text: as §2, §3

blackgrass = test: Test C preemergence; assay type: in vivo, Alopecurus myosuroides; details: for Blackgrass plant response rating: preemergence
Source text: as §2, §3

wheat = test: Test C preemergence; assay type: in vivo, Triticum aestivum; details: for Wheat plant response rating: preemergence
Source text: as §2, §3

oilseed rape = test: Test C preemergence; assay type: in vivo, Brassica napus; details: for Oilseed Rape plant response rating: preemergence
Source text: as §2, §3

[5] = Preemergence, 500 g ai/ha, 0 to 100 scale, 0 no effect, 100 complete control
[6] = preemergence, 125 g ai/ha, visual injury, 0 to 100 scale, approx. 10 days
[7] = Postemergence, 500 g ai/ha, visual rating after approx. 10 days, 0 to 100 scale (0 no effect, 100 complete control)
[8] = postemergence, 125 g ai/ha, about 10 days, visual rating on 0 to 100 scale (0 no effect, 100 complete control)
[9] = Postemergence, 125 g ai/ha, 0 to 100 scale, 0 no effect, 100 complete control
[10] = preemergence, 31 g ai/ha, visual rating, scale 0 to 100 (0 no effect, 100 complete control), 13 to 15 days
[11] = preemergence, 62 g ai/ha, 13 to 15 days, scale 0 to 100, 0 = no effect, 100 = complete control
[12] = preemergence, 125 g ai/ha, scale 0 to 100, 0 is no effect, 100 is complete control
[13] = preemergence, 500 g ai/ha, visual injury after approx. 10 days, 0 to 100 scale (0 no effect, 100 complete control)
[14] = Postemergence, 500 g ai/ha, 0 to 100 scale (0 no effect, 100 complete control)
[15] = 31 g ai/ha, visual rating, scale 0 to 100 (0 no effect, 100 complete control), 13 to 15 days
[16] = 62 g ai/ha, scale 0 to 100 (0 no effect, 100 complete control), 13 to 15 days
[17] = 125 g ai/ha, scale 0 to 100, 0 is no effect, 100 is complete control
[18] = preemergence, 62 g ai/ha, scale 0 to 100 (0 no effect, 100 complete control), 13 to 15 days

| Structure (SMILES) | Pigweed plant response rating (pigweed [1]; [6]) | Pigweed plant response rating (pigweed [2]; [8]) | Corn plant response rating (corn; [6]) | Plant response rating, Ducksalad (ducksalad) | Morningglory plant response rating (morningglory; [6]) | Plant response rating (scale of 0 to 100), Johnsongrass (johnsongrass) | Johnsongrass plant response rating (johnsongrass; [10]) | Johnsongrass plant response rating (johnsongrass; [12]) | Plant response rating (scale of 0 to 100), Galium (galium) | Galium plant response rating (galium; [10]) | Galium plant response rating (galium; [12]) | Plant response rating (scale of 0 to 100), Crabgrass, Large (crabgrass, large [3]) | Crabgrass, Large plant response rating (crabgrass, large [3]; [10]) | Crabgrass, Large plant response rating (crabgrass, large [3]; [12]) | Crabgrass, Large plant response rating (crabgrass, large [4]; [8]) | Plant response rating (scale of 0 to 100), Soybean (soybean) | Soybean plant response rating (soybean; [10]) | Pigweed plant response rating (pigweed [2]; [14]) | Barnyardgrass plant response rating (barnyardgrass; [14]) | Barnyardgrass plant response rating (barnyardgrass; [8]) | also measured |
| --- | --- | --- | --- | --- | --- | --- | --- | --- | --- | --- | --- | --- | --- | --- | --- | --- | --- | --- | --- | --- | --- |
| CCc1cc(C(=O)NCC(F)(F)F)nn1Cc1ccnc(C(F)(F)F)c1 [Compound 78, 5-ethyl-N-(2,2,2-trifluoroethyl)-1-[[(2-trifluoromethyl)-4-pyridinyl]methyl]-1H-pyrazole-3-carboxamide] | 100 | 100 | 60 | 85 | 100 | 100 | 85 | 100 | 100 | 85 | 100 | 100 | 100 | 100 | 90 | 98 | 98 |  |  |  | Pigweed plant response rating (pigweed [1]; [5]): 100; Pigweed plant response rating (pigweed [2]; [7]): 100; Corn plant response rating (corn; [5]): 70; Barnyardgrass plant response rating (barnyardgrass; [9]): 50; Barnyardgrass plant response rating (barnyardgrass; [7]): 90; Morningglory plant response rating (morningglory; [5]): 100; Plant response rating, Johnsongrass (johnsongrass; [11]): 95; Plant response rating, Galium (galium; [11]): 100; Plant response rating, Crabgrass, Large (crabgrass, large [3]; [11]): 100; Crabgrass, Large plant response rating (crabgrass, large [4]; [7]): 100; Plant response rating, Soybean (soybean; [11]): 98; Soybean plant response rating (soybean; [12]): 98 |
| CCONC(=O)c1cc(CC)n(Cc2cc(C(F)(F)F)no2)n1 [Compound 125] | 100 | 70 |  | 60 |  | 10 | 0 | 5 | 90 | 80 | 100 | 95 | 5 | 75 |  | 15 | 5 | 100 | 90 | 30 | Pigweed plant response rating (pigweed [1]; [13]): 100; Plant response rating (scale of 0 to 100), Blackgrass (blackgrass; Preemergence, 250 g ai/ha): 80; Blackgrass plant response rating (blackgrass; [15]): 0; Blackgrass plant response rating (blackgrass; [16]): 10; Blackgrass plant response rating (blackgrass; [17]): 60; Johnsongrass plant response rating (johnsongrass; [18]): 0; Galium plant response rating (galium; [18]): 85; Crabgrass, Large plant response rating (crabgrass, large [3]; [18]): 25; Soybean plant response rating (soybean; [18]): 5; Soybean plant response rating (soybean; [12]): 10; Plant response rating (scale of 0 to 100), Wheat (wheat; Preemergence, 250 g ai/ha): 50; Wheat plant response rating (wheat; [15]): 0; Wheat plant response rating (wheat; [16]): 0; Wheat plant response rating (wheat; [17]): 5; Plant response rating (scale of 0 to 100), Oilseed Rape (oilseed rape; Preemergence, 250 g ai/ha): 95; Oilseed Rape plant response rating (oilseed rape; [15]): 30; Oilseed Rape plant response rating (oilseed rape; [16]): 60; Oilseed Rape plant response rating (oilseed rape; [17]): 95 |
| CCCc1cc(C(=O)NCC(F)(F)F)nn1Cc1cc(C(F)(F)F)nn1C [Compound 138] | 100 | 100 | 10 | 80 | 90 |  |  |  |  |  |  |  |  |  | 100 |  |  | 100 | 100 | 100 | Pigweed plant response rating (pigweed [1]; [13]): 100; Corn plant response rating (corn; [13]): 90; Morningglory plant response rating (morningglory; [13]): 100; Crabgrass, Large plant response rating (crabgrass, large [4]; [14]): 100 |
| CCc1cc(C(=O)NCC(F)(F)F)nn1Cc1cc(OC(F)F)nn1C [Compound 206] |  |  |  | 0 |  |  |  |  |  |  |  |  |  |  |  |  |  | 100 | 60 | 0 | Pigweed plant response rating (0 to 100 scale) (pigweed [1]; preemergence, 125 g ai/ha, visual injury approx. 10 days after treatment): 90; Pigweed plant response rating (pigweed [2]; [9]): 80 |

From patent US20150105252A1, “SUBSTITUTED PYRAZOLES AS HERBICIDES” (E I DU PONT DE NEMOURS AND COMPANY, priority 2013, published 2015)
